Here are results for 22 molecules from patent US5494914A, “Inhibitors for testosterone 5α-reductase activity” (Endorecherche, priority 1994, dated 1996).

By Ki is commonly meant a measure of affinity in units of concentration, obtained from inhibition or displacement.

In assay [1] the test system is 5α-reductase. The conditions noted are these: Liang et al. 1981; cited from earlier work.
In assay [2] the test system is rat prostate. Particulars: in vitro and in vivo; Brooks et al. 1981; cited from earlier work.
Assay [3] has as its system ventral prostate. Particulars: rat; Brooks et al. 1981; cited from earlier work.
Assay [4] concerns the target T1, 5α-reductase (Homo sapiens, UniProt P18405).
T1 construct: host or cells: DU 145 (human prostate carcinoma)
T1 sequence (P18405 1-259): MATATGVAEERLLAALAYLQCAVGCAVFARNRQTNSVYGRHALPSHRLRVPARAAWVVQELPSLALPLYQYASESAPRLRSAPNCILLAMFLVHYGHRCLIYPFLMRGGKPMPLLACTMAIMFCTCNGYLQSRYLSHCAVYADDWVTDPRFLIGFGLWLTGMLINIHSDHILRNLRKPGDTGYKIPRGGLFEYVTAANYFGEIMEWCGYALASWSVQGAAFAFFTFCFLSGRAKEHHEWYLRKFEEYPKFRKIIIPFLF
Nature of the assay: 5α-reductase inhibition in DU 145 cells (conversion of tritiated 4-androstenedione). The class given is cell-based. The protocol:
Except where otherwise indicated, 5α-reductase inhibition is measured by the following method. Plates having 24 dishes per unit are used. Into each dish were placed 100,000 cells from the human carcinoma metastatic prostatic cell line DU 145 (ATCC #HTB 81) in MEM medium containing 2% dextran charcoal-treated calf serum, 1% penicillin, 1% streptomycin and 1% non essential amino acids. After 24 h, the medium was removed and replaced by 2.5 ml of MEM medium containing 2% dextran charcoal-treated calf serum, 10 nM of tritiated […] and 1% of ethanol. Each dish had different concentrations of the 5α-reductase inhibitor being tested. The cells were incubated for 24 h at 37° C. under an atmosphere of 5% CO2 saturated with water. The extracellular medium was then removed, centrifuged at 1000 RPM for 10 min., and decanted in test tubes. To these test tubes was added 100 μl of ethanol containing 25 μg of androstanedione, 25 μg of 4-androstenedione, 25 μg of dihydrotestosterone and 25 μg of testosterone. The steroids were then extracted from the mixture by two extractions with 2 ml of diethyl ether. Phase separation was achieved by freezing of the aqueous phase. The organic phase was then evaporated, thus leaving asteroid residue which was dissolved in a few drops of methylene chloride and spotted on TLC plates (Whatman WH 4420222). After developing twice with a mixture of benzene-acetone (9:1), the spots were visualized by U.V. and gaseous iodine, cut, put into separate vials for each steroid and extracted for 15 min with 1 ml of ethanol. After addition of 10 ml of scintillation cocktail (NEN 989), the vials were shaked and counted.
The 5α-reductase activity is the sum of the transformation of 4-androstenedione to androstanedione and of the transformation of testosterone to dihydrotestosterone.

For assay [5], the system named is intraprostatic DHT. Particulars: men; Imperato-McGinley et al. 1989; cited from earlier work.
The test system of assay [6] is type I 5α-reductase. The conditions noted are these: Andersson et al. 1991; cited from earlier work.
Assay [7] relates to prostate. The conditions noted are these: men; Imperato-McGinley et al. 1989; cited from earlier work.
Assay [8] deals with type II 5α-reductase. Particulars: Andersson et al. 1991; cited from earlier work.

In the case of `CCN(CC)C(=O)[C@H]1CC[C@H]2[C@@H]3CC[C@H]4N(C)C(=O)CC[C@]4(C)[C@H]3CC[C@]12C` [4-MA, N,N-diethyl-4-methyl-3-oxo-4-aza-5α-androstane-17β-carboxamide], in assay [1], the 5α-reductase inhibition type result is reported as “reversible inhibitor of 5α-reductase”. In assay [2], the “inhibiting the formation of DHT from testosterone in rat prostate” value is “useful in inhibiting the formation of DHT from testosterone in rat prostate in vitro and in vivo”. Besides, the “testosterone-induced increase in ventral prostate weight” value in assay [3] is “reducing the testosterone-induced increase in ventral prostate weight”.

As to `CN(C=O)[C@H]1CC[C@H]2[C@@H]3CC[C@H]4N(C)C(=O)CC[C@]4(C)[C@H]3CC[C@]12C` [EM 316, 17β-(N-methyl-N-formamido)-4-methyl-4-aza-5α-androstan-3-one], the Ki in assay [4] stood at 29 nM.

`CN1C(=O)CC[C@]2(C)[C@H]3CC[C@]4(C)[C@@H](N(C=O)C5CC5)CC[C@H]4[C@@H]3CC[C@@H]12` [EM 336, 17β-(N-Cyclopropyl-N-formamido)-4-methyl-4-aza-5α-androstan-3-one]: the affinity in assay [4], expressed as Ki, was 11.2 nM.

Molecule `CN1C(=O)CC[C@]2(C)[C@H]3CC[C@]4(C)[C@@H](N(C=O)C5CCCCC5)CC[C@H]4[C@@H]3CC[C@@H]12` [EM 337, 17β-(N-Cyclohexyl-N-formamido)-4-methyl-4-aza-5α-androstan-3-one] displayed a Ki in assay [4] of 11.9 nM.

In turn, `CCCCN(C=O)[C@H]1CC[C@H]2[C@@H]3CC[C@H]4N(C)C(=O)CC[C@]4(C)[C@H]3CC[C@]12C` [EM 347, 17β-(N-n-butyl-N-formamido)-4-methyl-4-aza-5α-androstan-3-one] returned an inhibition constant (Ki) in assay [4] of 2.6 nM.

In the case of `CNC(=O)N(C1CC1)[C@H]1CC[C@H]2[C@@H]3CC[C@H]4N(C)C(=O)CC[C@]4(C)[C@H]3CC[C@]12C` [EM 373, 17β-N-(1N-cyclopropyl-2N-methylurea)-4-methyl-4-aza-5α-androstan-3-one], the affinity in assay [4], expressed as Ki, was 0.5 nM.

For the molecule `CN1C(=O)CC[C@]2(C)[C@H]3CC[C@]4(C)[C@@H](N(C(=O)Nc5ccccc5)C5CC5)CC[C@H]4[C@@H]3CC[C@@H]12` [EM 374, 17β-N-(1N-cyclopropyl-2N-phenylurea)-4-methyl-4-aza-5α-androstan-3-one], the inhibitory constant (Ki) in assay [4] turned out to be 2.3 nM.

The molecule `CCCNC(=O)N(C1CC1)[C@H]1CC[C@H]2[C@@H]3CC[C@H]4N(C)C(=O)CC[C@]4(C)[C@H]3CC[C@]12C` [EM 390] had an inhibition constant (Ki) in assay [4] of 7.1 nM.

On to `CCNC(=O)N(C1CC1)[C@H]1CC[C@H]2[C@@H]3CC[C@H]4N(C)C(=O)CC[C@]4(C)[C@H]3CC[C@]12C` [EM 392, 17βN-(1N-cyclopropyl-2N-ethylurea)-4-methyl-4-aza-5α-androstan-3-one], for which the affinity in assay [4], expressed as Ki, was 13.5 nM.

`CCCCNC(=O)N(C1CC1)[C@H]1CC[C@H]2[C@@H]3CC[C@H]4N(C)C(=O)CC[C@]4(C)[C@H]3CC[C@]12C` [EM 394]: the inhibition constant Ki in assay [4] came to 3.3 nM.

`CC(C)NC(=O)N(C1CC1)[C@H]1CC[C@H]2[C@@H]3CC[C@H]4N(C)C(=O)CC[C@]4(C)[C@H]3CC[C@]12C` [EM 396]: the Ki in assay [4] came out at 14 nM.

As for `CN1C(=O)CC[C@]2(C)[C@H]3CC[C@]4(C)[C@@H](N(C(=O)NC5CCCCC5)C5CC5)CC[C@H]4[C@@H]3CC[C@@H]12` [EM 397], affinity in assay [4] was put at a Ki of 3.2 nM.

Regarding `CCCCCN(C=O)[C@H]1CC[C@H]2[C@@H]3CC[C@H]4N(C)C(=O)CC[C@]4(C)[C@H]3CC[C@]12C` [EM 401, 17β(N-n-Amyl-N-formamido)-4-methyl-4-aza-5α-androstan-3-one], the inhibitory constant (Ki) in assay [4] was found to be 1.8 nM.

In assay [4], `CCCCCCN(C=O)[C@H]1CC[C@H]2[C@@H]3CC[C@H]4N(C)C(=O)CC[C@]4(C)[C@H]3CC[C@]12C` [EM 402, 17β-(N-n-Hexyl-N-formamido)-4-methyl-4-aza-5α-androstan-3-one] showed an inhibition constant (Ki) of 7.2 nM.

`CC(C)CCN(C=O)[C@H]1CC[C@H]2[C@@H]3CC[C@H]4N(C)C(=O)CC[C@]4(C)[C@H]3CC[C@]12C` [EM 405, 17β-(N-iso-Amyl-N-formamido)-4-methyl-4-aza-5α-androstan-3-one] registered a Ki in assay [4] of 2.2 nM.

On to `CCC(CC)N(C=O)[C@H]1CC[C@H]2[C@@H]3CC[C@H]4N(C)C(=O)CC[C@]4(C)[C@H]3CC[C@]12C` [EM 407, 17β-(N-1-Ethylpropyl-N-formamido)-4-methyl-4-aza-5α-androstan-3-one], for which the inhibitory constant (Ki) in assay [4] was 10.6 nM.

In assay [4], `CN(C(=O)Nc1ccccc1)[C@H]1CC[C@H]2[C@@H]3CC[C@H]4N(C)C(=O)CC[C@]4(C)[C@H]3CC[C@]12C` [EM 408, 17βN-(1N-methyl-2N-phenylurea)-4-methyl-4-aza-5α-androstan-3-one] came in with a Ki of 8.2 nM. The Ki values of the last two molecules are within 1.5-fold of each other.

In assay [4], `CC(C)CN(C=O)[C@H]1CC[C@H]2[C@@H]3CC[C@H]4N(C)C(=O)CC[C@]4(C)[C@H]3CC[C@]12C` [EM 422, 17β-(N-iso-Butyl-N-formamido)-4-methyl-4-aza-5-androstan-3-one] came in with an inhibitory constant (Ki) of 7.3 nM.

Turning to `CCCN(C=O)[C@H]1CC[C@H]2[C@@H]3CC[C@H]4N(C)C(=O)CC[C@]4(C)[C@H]3CC[C@]12C` [EM 423, 17β-(N-n-propyl-N-formamido)-4-methyl-4-aza-5α-androstan-3-one], the inhibition constant Ki in assay [4] came to 5.1 nM.

On to `CCCCN(C(C)=O)[C@H]1CC[C@H]2[C@@H]3CC[C@H]4N(C)C(=O)CC[C@]4(C)[C@H]3CC[C@]12C` [EM 424, 17β-(N-n-butyl-N-acetamido)-4-methyl-4-aza-5α-androstan-3-one], for which the affinity in assay [4] corresponds to a Ki of 11.8 nM. This Ki is about 2.3-fold higher than that of the molecule before.

In assay [4], `CN1C(=O)CC[C@]2(C)[C@H]3CC[C@]4(C)[C@@H](N(C=O)Cc5ccccc5)CC[C@H]4[C@@H]3CC[C@@H]12` [EM 436, 17β-(N-Benzyl-N-formamido)-4-methyl-4-aza-5α-androstan-3-one] came in with an inhibitory constant (Ki) of 5.6 nM.

Take `CC(C)(C)NC(=O)[C@H]1CC[C@H]2[C@@H]3CC[C@H]4NC(=O)C=C[C@]4(C)[C@H]3CC[C@]12C` [MK-906]: the “intraprostatic concentration of DHT” value in assay [5] is on record as “reduction in the intraprostatic concentration of DHT”. Moreover, in assay [6], the “inhibition of the type I enzyme” value was “weak inhibitor of the type I enzyme”. In addition, in assay [7], the “reduction in prostatic size” value was 25-30%. The “inhibition of the type II enzyme” value in assay [8] was “potent inhibitor of the type II enzyme”.
